Laboratory results: the supplement of paper PMC10307832

Experiments:
Assay in all cases: relative viability (nuclei count vs DMSO), 5 days (fraction); higher = more cells survive
[1] = compound: COc1cc2nccc(Oc3ccc(NC(=O)C4(C(=O)Nc5ccc(F)cc5)CC4)cc3)c2cc1OC [Cabozantinib] + N=C(N)NC(=N)NCCc1ccccc1 [Phenformin] (partner 250 µM)
How it was run: (§1)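 Relative viability divides the nuclei count in treated wells by that in vehicle wells. Lung cancer cell lines were seeded in 1536-well plates, dosed by pin tool the next day, and fixed and stained after 5 days in one step with final 0.05% Triton X-100, 1% formaldehyde and 1 ug/ml Hoechst. Dosing was a single drug or a fixed anchor-drug dose plus five library-drug doses (not always all listed) in √10 steps, and values are medians of duplicate plates imaged at 4×.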

Cabozantinib + AZD7762 = compound: COc1cc2nccc(Oc3ccc(NC(=O)C4(C(=O)Nc5ccc(F)cc5)CC4)cc3)c2cc1OC [Cabozantinib] + NC(=O)Nc1cc(-c2cccc(F)c2)sc1C(=O)N[C@H]1CCCNC1 [AZD7762] (partner 0.2 µM)
How it was run: as §1

Cabozantinib + Dasatinib = compound: COc1cc2nccc(Oc3ccc(NC(=O)C4(C(=O)Nc5ccc(F)cc5)CC4)cc3)c2cc1OC [Cabozantinib] + Cc1nc(Nc2ncc(C(=O)Nc3c(C)cccc3Cl)s2)cc(N2CCN(CCO)CC2)n1 [Dasatinib] (partner 0.075 µM)
How it was run: as §1

Zosuquidar + Decitabine = compound: O[C@@H](COc1cccc2ncccc12)CN1CCN([C@@H]2c3ccccc3[C@@H]3[C@H](c4ccccc42)C3(F)F)CC1 [Zosuquidar] + Nc1ncn([C@H]2C[C@H](O)[C@@H](CO)O2)c(=O)n1 [Decitabine] (partner 2 µM)
How it was run: as §1

Cell Line	relative viability ([1]; first compound 0.02 µM)	relative viability ([1]; first compound 0.06325 µM)	relative viability ([1]; first compound 0.6325 µM)	relative viability ([1]; first compound 2 µM)	relative viability (Cabozantinib + AZD7762; first compound 0.02 µM)	relative viability (Cabozantinib + AZD7762; first compound 0.06325 µM)	relative viability (Cabozantinib + AZD7762; first compound 0.6325 µM)	relative viability (Cabozantinib + AZD7762; first compound 2 µM)	relative viability (Cabozantinib + Dasatinib; first compound 0.02 µM)	relative viability (Cabozantinib + Dasatinib; first compound 0.06325 µM)	relative viability (Cabozantinib + Dasatinib; first compound 0.6325 µM)	relative viability (Cabozantinib + Dasatinib; first compound 2 µM)	relative viability (Zosuquidar + Decitabine; first compound 0.01 µM)	relative viability (Zosuquidar + Decitabine; first compound 0.03162 µM)	relative viability (Zosuquidar + Decitabine; first compound 0.1 µM)	relative viability (Zosuquidar + Decitabine; first compound 0.3162 µM)	relative viability (Zosuquidar + Decitabine; first compound 1 µM)	relative viability ([1]; first compound 0.2 µM)	relative viability (Cabozantinib + AZD7762; first compound 0.2 µM)	relative viability (Cabozantinib + Dasatinib; first compound 0.2 µM)
HCC-827	0.425	0.441	0.417	0.381	0.189	0.268	0.225	0.189	0.327	0.31	0.262	0.242	0.302	0.367	0.266	0.307	0.295			
HOP-62	0.706	0.777	0.693	0.697	0.629	0.798	0.441	0.428	0.603	0.703	0.579	0.41	0.215	0.223	0.25	0.203	0.21	0.741	0.633	0.529
LC-2-ad		0.68	0.604	0.546	0.766	0.98	0.902	0.866		0.641	0.295	0.283	0.878	0.922	0.876	0.725	0.776	0.574	0.79	0.492
LCLC-97TM1	0.229	0.461	0.431	0.45		0.305	0.195	0.304	0.723	0.854	0.848	0.717	0.27	0.217		0.253	0.224	0.5	0.285	0.757
LCLC-103H	0.296	0.354	0.371	0.306	0.762	0.87	0.813	0.721	0.34	0.552	0.486	0.378	0.803	0.724	0.787	0.739	0.772	0.27	0.811	0.398
LK-2		0.508	0.396	0.607		0.659	0.434	0.408		0.247	0.341	0.46	0.247	0.361	0.28	0.372	0.304		0.426	
LOU-NH91	0.602	0.931	0.792	0.731	0.637	0.862	0.752	0.768	0.432	0.579	0.578	0.547	0.805	0.814	0.703	0.834	0.761		0.703	
LU99A	0.766	0.934	0.696	0.89	0.292	0.376	0.279	0.397	0.461	0.715	0.448	0.523	0.835	1.09	0.946	0.917	1.04	0.925	0.411	0.412
NCI-H520	0.608	0.598	0.672	0.432					0.18	0.204	0.201	0.199	0.505	0.523	0.395	0.472	0.47	0.65		0.215
